Results published in ChEMBL document CHEMBL1201862, “PubChem BioAssay data set” (2004).
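These data come from cells grown in 96-well plates and exposed to compound for 48 hours at five concentrations. At the GI50, growth is halved.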 The source made the active and inactive calls. Cut-off read from the data, not from the text of the source: active = GI50 up to about 1.1 µM and inactive = higher.

What was measured:
Assay in all cases: inhibition of tumour cell growth, NCI panel, 48 h
786-0 = test system: 786-0
A498 = test system: A498
A549 = test system: A549
ACHN = test system: ACHN
CAKI-1 = test system: CAKI-1
CCRF-CEM = test system: CCRF-CEM
COLO 205 = test system: COLO 205
DU-145 = test system: DU-145
EKVX = test system: EKVX
HCC 2998 = test system: HCC 2998
HCT-116 = test system: HCT-116
HCT-15 = test system: HCT-15
HL-60 = test system: HL-60
HOP-62 = test system: HOP-62
HOP-92 = test system: HOP-92
HT-29 = test system: HT-29
Hs-578T = test system: Hs-578T
IGROV-1 = test system: IGROV-1
K562 = test system: K562
KM12 = test system: KM12
LOX IMVI = test system: LOX IMVI
M14 = test system: M14
MCF7 = test system: MCF7
MDA-MB-231 = test system: MDA-MB-231
MDA-MB-435 = test system: MDA-MB-435
MDA-N = test system: MDA-N
MOLT-4 = test system: MOLT-4
Malme-3M = test system: Malme-3M
NCI-H226 = test system: NCI-H226
NCI-H23 = test system: NCI-H23
NCI-H460 = test system: NCI-H460
NCI-H522 = test system: NCI-H522
NCI/ADR-RES = test system: NCI/ADR-RES
OVCAR-3 = test system: OVCAR-3
OVCAR-4 = test system: OVCAR-4
OVCAR-5 = test system: OVCAR-5
OVCAR-8 = test system: OVCAR-8
RPMI-8226 = test system: RPMI-8226
RXF 393 = test system: RXF 393
SF-268 = test system: SF-268
SF-295 = test system: SF-295
SF-539 = test system: SF-539
SK-MEL-28 = test system: SK-MEL-28
SK-MEL-5 = test system: SK-MEL-5
SK-OV-3 = test system: SK-OV-3
SN12C = test system: SN12C
SNB-19 = test system: SNB-19
SNB-75 = test system: SNB-75
SR = test system: SR
SW-620 = test system: SW-620
T47D = test system: T47D
TK-10 = test system: TK-10
U-251 = test system: U-251
UACC-257 = test system: UACC-257
UACC-62 = test system: UACC-62
PC-3 = test system: PC-3
SK-MEL-2 = test system: SK-MEL-2
UO-31 = test system: UO-31

With `CCN(CC)/[N+]([O-])=N/OS(=O)(=O)N(C)C` the GI50 (786-0) was > 100 µM (inactive), the GI50 (A498) was > 100 µM (inactive) and the GI50 (A549) was > 100 µM (inactive). For the same molecule, the GI50 (ACHN) was > 100 µM (inactive), the GI50 (CAKI-1) was > 100 µM (inactive) and the GI50 (CCRF-CEM) was > 100 µM (inactive). For the same molecule, the GI50 (COLO 205) was > 100 µM (inactive), the GI50 (DU-145) was > 100 µM (inactive) and the GI50 (EKVX) was > 100 µM (inactive). For the same molecule, the GI50 (HCC 2998) was > 100 µM (inactive), the GI50 (HCT-116) was > 100 µM (inactive) and the GI50 (HCT-15) was over 100 µM. The GI50 (HL-60) was > 100 µM (inactive), the GI50 (HOP-62) was > 100 µM (inactive) and the GI50 (HOP-92) was > 100 µM (inactive). The GI50 (HT-29) was > 100 µM (inactive), the GI50 (Hs-578T) was > 100 µM (inactive) and the GI50 (IGROV-1) was > 100 µM (inactive). For the same molecule, the GI50 (K562) was > 100 µM (inactive), the GI50 (KM12) was > 100 µM (inactive) and the GI50 (LOX IMVI) was > 100 µM (inactive). For the same molecule, the GI50 (M14) was > 100 µM (inactive), the GI50 (MCF7) was > 100 µM (inactive) and the GI50 (MDA-MB-231) was > 100 µM (inactive). For the same molecule, the GI50 (MDA-MB-435) was > 100 µM (inactive), the GI50 (MDA-N) was > 100 µM (inactive) and the GI50 (MOLT-4) was > 100 µM (inactive). The GI50 (Malme-3M) was > 100 µM (inactive), the GI50 (NCI-H226) was > 100 µM (inactive) and the GI50 (NCI-H23) was > 100 µM (inactive). The GI50 (NCI-H460) was > 100 µM (inactive), the GI50 (NCI-H522) was > 100 µM (inactive) and the GI50 (NCI/ADR-RES) was > 100 µM (inactive). For the same molecule, the GI50 (OVCAR-3) was > 100 µM (inactive), the GI50 (OVCAR-4) was > 100 µM (inactive) and the GI50 (OVCAR-5) was > 100 µM (inactive). The GI50 (OVCAR-8) was > 100 µM (inactive), the GI50 (RPMI-8226) was > 100 µM (inactive) and the GI50 (RXF 393) was > 100 µM (inactive). The GI50 (SF-268) was > 100 µM (inactive), the GI50 (SF-295) was > 100 µM (inactive) and the GI50 (SF-539) was > 100 µM (inactive). The GI50 (SK-MEL-28) was > 100 µM (inactive), the GI50 (SK-MEL-5) was > 100 µM (inactive) and the GI50 (SK-OV-3) was > 100 µM (inactive). The GI50 (SN12C) was > 100 µM (inactive), the GI50 (SNB-19) was > 100 µM (inactive) and the GI50 (SNB-75) was > 100 µM (inactive). For the same molecule, the GI50 (SR) was > 100 µM (inactive), the GI50 (SW-620) was > 100 µM (inactive) and the GI50 (T47D) was > 100 µM (inactive). The GI50 (TK-10) was > 100 µM (inactive), the GI50 (U-251) was > 100 µM (inactive) and the GI50 (UACC-257) was > 100 µM (inactive). For the same molecule, the GI50 (UACC-62) was > 100 µM (inactive).

For `C=CCNC(=S)N/C=C(\C(=O)OCC)C(=O)C(=O)OCC`, the GI50 (786-0) was > 100 µM (inactive), the GI50 (A549) was > 100 µM (inactive) and the GI50 (ACHN) was > 100 µM (inactive). The GI50 (CAKI-1) was > 100 µM (inactive), the GI50 (CCRF-CEM) was > 100 µM (inactive) and the GI50 (COLO 205) was > 100 µM (inactive). For the same molecule, the GI50 (DU-145) was > 100 µM (inactive), the GI50 (EKVX) was > 100 µM (inactive) and the GI50 (HCC 2998) was > 100 µM (inactive). For the same molecule, the GI50 (HCT-116) was > 100 µM (inactive), the GI50 (HCT-15) was over 100 µM and the GI50 (HL-60) was > 100 µM (inactive). The GI50 (HOP-62) was > 100 µM (inactive), the GI50 (HT-29) was > 100 µM (inactive) and the GI50 (Hs-578T) was > 100 µM (inactive). For the same molecule, the GI50 (IGROV-1) was > 100 µM (inactive), the GI50 (K562) was > 100 µM (inactive) and the GI50 (KM12) was > 100 µM (inactive). The GI50 (LOX IMVI) was > 100 µM (inactive), the GI50 (M14) was > 100 µM (inactive) and the GI50 (MCF7) was > 100 µM (inactive). For the same molecule, the GI50 (MDA-MB-231) was > 100 µM (inactive), the GI50 (MDA-MB-435) was > 100 µM (inactive) and the GI50 (MDA-N) was > 100 µM (inactive). The GI50 (MOLT-4) was > 100 µM (inactive), the GI50 (Malme-3M) was > 100 µM (inactive) and the GI50 (NCI-H226) was > 100 µM (inactive). For the same molecule, the GI50 (NCI-H23) was > 100 µM (inactive), the GI50 (NCI-H460) was > 100 µM (inactive) and the GI50 (NCI-H522) was > 100 µM (inactive). For the same molecule, the GI50 (NCI/ADR-RES) was > 100 µM (inactive), the GI50 (OVCAR-3) was > 100 µM (inactive) and the GI50 (OVCAR-4) was > 100 µM (inactive). For the same molecule, the GI50 (OVCAR-5) was > 100 µM (inactive), the GI50 (OVCAR-8) was > 100 µM (inactive) and the GI50 (PC-3) was > 100 µM (inactive). The GI50 (RPMI-8226) was > 100 µM (inactive), the GI50 (RXF 393) was > 100 µM (inactive) and the GI50 (SF-268) was > 100 µM (inactive). The GI50 (SF-295) was > 100 µM (inactive), the GI50 (SF-539) was > 100 µM (inactive) and the GI50 (SK-MEL-28) was > 100 µM (inactive). The GI50 (SK-MEL-2) was > 100 µM (inactive), the GI50 (SK-MEL-5) was > 100 µM (inactive) and the GI50 (SK-OV-3) was > 100 µM (inactive). The GI50 (SN12C) was > 100 µM (inactive), the GI50 (SNB-19) was > 100 µM (inactive) and the GI50 (SNB-75) was > 100 µM (inactive). For the same molecule, the GI50 (SR) was > 100 µM (inactive), the GI50 (SW-620) was > 100 µM (inactive) and the GI50 (T47D) was > 100 µM (inactive). The GI50 (U-251) was > 100 µM (inactive), the GI50 (UACC-257) was > 100 µM (inactive) and the GI50 (UACC-62) was > 100 µM (inactive). The GI50 (UO-31) was > 100 µM (inactive).
